In patent US20250326767A1, “NOVEL BENZOTHIAZOLE DERIVATIVES” (CARNA BIOSCIENCES, INC., priority 2021, published 2025):

What was measured:
Test in all cases: Inhibition test on activity of DYRK family, mobility shift assay (MSA)
Type in all cases: biochemical
DYRK1A = target: T1, DYRK1A (Homo sapiens, UniProt Q13627); conditions: ATP 100 μM; FITC-labeled DYRKtide peptide substrate; room temperature 1 hour; read-out: Inhibitory Activity DYRK1A (IC50 class)
T1 construct: purchased Carna Biosciences, Inc. 04-130
Description: (§1) The kinase activity was measured by mobility shift assay (MSA) method using QuickScout Screening Assist™ MSA (commercially available kit manufactured by Carna Biosciences, Inc.). The substrate of the kinase reaction used was an FITC-labeled DYRKtide peptide included in the kit. An assay buffer [20 mM HEPES, 0.01% Triton X-100™, 2 mM dithiothreitol, pH 7.5] was used to create a substrate mixture solution with a substrate (4 μM), MgCl2 (20 mM), and ATP (DYRK1A: 100 μM; DYRKIB: 200 μM; DYRK2:40 μM; and DYRK3:20 μM). In addition, kinases (DYRK1A: manufactured by Carna Biosciences, Inc., Cat. No. 04-130; DYRK1B: manufactured by Carna Biosciences, Inc., Cat. No. 04-131; DYRK2; manufactured by Carna Biosciences, Inc., Cat. No. 04-132; and DYRK3; manufactured by Carna Biosciences, Inc., Cat. No. 04-133) were diluted with the assay buffer to prepare enzyme solutions (DYRK1A: 0.2 ng/μL; DYRK1B: 0.08 ng/μL; DYRK2: 0.04 ng/μL; and DYRK3:0.25 ng/μL). The 10 mM solution of the test compound in DMSO was further diluted with DMSO to 10 levels of the concentration (0.00003 mM, 0.0001 mM, 0.0003 mM, 0.001 mM, 0.003 mM, 0.01 mM, 0.03 mM, 0.1 mM, 0.3 mM, and 1 mM), each of which was subjected to 25-fold dilution with the assay buffer to obtain a drug solution (4% DMSO solution). 5 μL of the drug solution or a control solution (4% DMSO-assay buffer), 5 μL of the substrate mixture solution, and 10 μL of the enzyme solution were mixed in the wells of a polypropylene 384-well plate and allowed to react at room temperature for 1 hour, and then the reaction was quenched by adding 60 μL of the termination buffer included in the kit. Subsequently, the quantities of the substrates(S) and the phosphorylated substrate (P) in the reaction solution were measured using LabChip EZ Reader II system (manufactured by Caliper Life Sciences) according to the protocol of the assay kit.
(§2) The heights of the peaks of the “substrate” and the “phosphorylated substrate” were expressed as S and P, respectively, and a blank containing the assay buffer instead of the enzyme solution was also measured.
(§3) The inhibition rate (%) of the test compound was calculated according to the following equation: […]
(§4) wherein, A, B, and C represent P/(P+S) of the blank well, P/(P+S) of the control solution well, and P/(P+S) of the compound-containing well, respectively.
(§5) The IC50 value was calculated via a regression analysis of the inhibition rate and the test compound concentration (logarithmic value).

DYRK2 = target: T2, DYRK2 (Homo sapiens, UniProt Q92630); conditions: ATP 40 μM; FITC-labeled DYRKtide peptide substrate; room temperature 1 hour; read-out: Inhibitory Activity DYRK2 (IC50 class)
T2 construct: purchased Carna Biosciences, Inc. 04-132
T2 sequence (Q92630 1-601): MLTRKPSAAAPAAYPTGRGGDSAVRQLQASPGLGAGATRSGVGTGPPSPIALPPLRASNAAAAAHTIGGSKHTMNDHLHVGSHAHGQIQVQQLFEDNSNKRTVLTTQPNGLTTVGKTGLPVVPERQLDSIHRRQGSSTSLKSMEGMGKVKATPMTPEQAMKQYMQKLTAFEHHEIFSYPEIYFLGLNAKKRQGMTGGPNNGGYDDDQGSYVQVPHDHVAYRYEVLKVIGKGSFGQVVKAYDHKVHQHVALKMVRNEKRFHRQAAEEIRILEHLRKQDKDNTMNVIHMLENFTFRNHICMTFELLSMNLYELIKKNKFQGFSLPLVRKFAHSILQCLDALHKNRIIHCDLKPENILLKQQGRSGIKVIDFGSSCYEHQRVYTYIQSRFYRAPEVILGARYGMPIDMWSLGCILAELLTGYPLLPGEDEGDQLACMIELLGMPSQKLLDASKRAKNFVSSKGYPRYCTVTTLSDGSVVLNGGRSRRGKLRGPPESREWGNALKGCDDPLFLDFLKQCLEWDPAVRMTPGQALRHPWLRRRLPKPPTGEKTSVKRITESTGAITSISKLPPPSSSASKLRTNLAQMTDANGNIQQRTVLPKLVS
Description: as §1, §2, §3, §4, §5

DYRK3 = target: T3, DYRK3 (Homo sapiens, UniProt O43781); conditions: ATP 20 μM; FITC-labeled DYRKtide peptide substrate; room temperature 1 hour; read-out: Inhibitory Activity DYRK3 (IC50 class)
T3 construct: purchased Carna Biosciences, Inc. 04-133
T3 sequence (O43781 1-588): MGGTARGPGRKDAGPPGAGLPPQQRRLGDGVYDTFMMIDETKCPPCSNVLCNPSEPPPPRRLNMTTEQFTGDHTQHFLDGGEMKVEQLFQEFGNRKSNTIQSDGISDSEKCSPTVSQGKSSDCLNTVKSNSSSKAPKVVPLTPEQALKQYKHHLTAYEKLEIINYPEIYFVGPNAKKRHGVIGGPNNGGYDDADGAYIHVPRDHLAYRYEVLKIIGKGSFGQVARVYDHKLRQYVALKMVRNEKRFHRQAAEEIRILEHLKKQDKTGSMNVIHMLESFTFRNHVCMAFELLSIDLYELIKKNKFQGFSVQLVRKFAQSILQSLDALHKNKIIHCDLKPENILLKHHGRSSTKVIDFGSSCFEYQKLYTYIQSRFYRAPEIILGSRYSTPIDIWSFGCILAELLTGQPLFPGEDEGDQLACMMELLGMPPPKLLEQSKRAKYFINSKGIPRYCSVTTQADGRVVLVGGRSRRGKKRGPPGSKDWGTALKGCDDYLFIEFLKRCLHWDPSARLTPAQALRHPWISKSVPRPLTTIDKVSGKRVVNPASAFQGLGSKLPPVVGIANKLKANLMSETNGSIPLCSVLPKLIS
Description: as §1, §2, §3, §4, §5

Compound	IC50 (DYRK1A) [nM]	IC50 (DYRK2) [nM]	IC50 (DYRK3) [nM]
CC#CC1N(c2nc3c4c(ccc3s2)OCC4)C(=O)NC12CC2 (racemic) [Example 2, (RS)-6-(7,8-dihydrobenzofuro[4,5-d]thiazol-2-yl)-7-(prop-1-yn-1-yl)-4,6-diazaspiro[2.4]heptan-5-one]	< 10	100 to 1000	100 to 1000
CC#CC1N(c2nc3c4c(ccc3s2)OCCO4)C(=O)NC12CC2 (racemic) [Example 4, (RS)-6-(7,8-dihydro-[1,4]dioxyno[2′,3′:5,6]benzo[1,2-d]thiazol-2-yl)-7-(prop-1-yn-1-yl)-4,6-diazaspiro[2.4]heptan-5-one]	–	100 to 1000	100 to 1000
CC#CC1N(c2nc3c4c(ccc3s2)OCC4)C(=O)NC12COC2 (racemic) [Example 9, (RS)-7-(7,8-dihydro-benzofuro[4,5-d]thiazol-2-yl)-8-(prop-1-yn-1-yl)-2-oxa-5,7-diazaspiro[3.4]octan-6-one]	10 to 100	> 1000	100 to 1000
CC#CC1CCNC(=O)N1c1nc2c3c(ccc2s1)OCCO3 (single isomer, unassigned) [Example 6, 1-(7,8-dihydro-[1,4]dioxyno[2′,3′:5,6]benzo[1,2-d]thiazol-2-yl)-6-(prop-1-yn-1-yl)tetrahydropyrimidin-2(1H)-one]	100 to 1000	> 1000	> 1000
CC#CC1N(c2nc3c4c(ccc3s2)OCC4)C(=O)NC12CCCC2 (single isomer, unassigned) [Example 23, 3-(7,8-dihydrobenzofuro[4,5-d]thiazol-2-yl)-4-(prop-1-yn-1-yl)-1,3-diazaspiro[4.4]nonan-2-one]	–	> 1000	> 1000
CC#C[C@@H]1[C@H](C)CNC(=O)N1c1nc2c3c(ccc2s1)OCC3 (stereo in doubt) [Example 10, (5R*,6S*)-1-(7,8-dihydrobenzofuro[4,5-d]thiazol-2-yl)-5-methyl-6-(prop-1-yn-1-yl)tetrahydropyrimidin-2(1H)-one]	–	> 1000	> 1000
CC#C[C@@H]1[C@@H](C)CNC(=O)N1c1nc2c3c(ccc2s1)OCC3 (stereo in doubt) [Example 11, (5S*, 6S*)-1-(7,8-dihydrobenzofuro[4,5-d]thiazol-2-yl)-5-methyl-6-(prop-1-yn-1-yl)tetrahydropyrimidin-2(1H)-one]	–	> 1000	> 1000

Other lines, results leading:

IC50 (DYRK1A) [nM]	IC50 (DYRK2) [nM]	IC50 (DYRK3) [nM]	Compound
< 10	> 1000	> 1000	CC#CC1CCNC(=O)N1c1nc2c3c(ccc2s1)OCCO3 (racemic) [Example 1, (RS)-1-(7,8-dihydro-[1,4]dioxino[2′,3′:5,6]benzo[1,2-d]thiazol-2-yl)-6-(prop-1-yn-1-yl)tetrahydropyrimidin-2(1H)-one]
< 10	100 to 1000	100 to 1000	CC#CC1CCNC(=O)N1c1nc2c3c(ccc2s1)OCC3 (racemic) [Example 3, (RS)-3-(7,8-dihydrobenzofuro[4,5-d]thiazol-2-yl)-4-(prop-1-yn-1-yl)-tetrahydropyrimidin-2(1H)-one]
–	> 1000	> 1000	CC#CC1N(c2nc3c4c(ccc3s2)OCCO4)C(=O)NC12CC2 (single isomer, unassigned) [Example 8, 6-(7,8-dihydro-[1,4]dioxyno[2′,3′:5,6]benzo[1,2-d]thiazol-2-yl)-7-(prop-1-yn-1-yl)-4,6-diazaspiro[2.4]heptan-5-one]
< 10	100 to 1000	10 to 100	CC#CC1N(c2nc3c4c(ccc3s2)OCC4)C(=O)NC12CC2 (single isomer, unassigned) [Example 18, 6-(7,8-dihydrobenzofuro[4,5-d]thiazol-2-yl)-7-(prop-1-yn-1-yl)-4,6-diazaspiro[2.4]heptan-5-one]
–	> 1000	100 to 1000	CC#CC1N(c2nc3c4c(ccc3s2)OCC4)C(=O)NC12CCCC2 (single isomer, unassigned) [Example 22, 3-(7,8-dihydrobenzofuro[4,5-d]thiazol-2-yl)-4-(prop-1-yn-1-yl)-1,3-diazaspiro[4.4]nonan-2-one]
